Data published in patent US20110092476A1, “Bicycloheteroaryl compounds as P2X7 modulators and uses thereof” (Renovis, Inc., priority 2006, published 2011).

Each compound was assayed against T1, P2X7 receptor (Homo sapiens, UniProt Q99572) (assay: IL-1β release assay in differentiated THP-1 cells stimulated with BzATP (Example 9)). Details: 0.1 μM compound; differentiated THP-1 cells, BzATP 250 uM; "*" symbols; read-out: IL-1β % Inhib. @ 0.3 or 0.1 uM.
T1 construct: host or cells: THP-1 cells differentiated with LPS and IFN-γ
T1 sequence (Q99572 1-595): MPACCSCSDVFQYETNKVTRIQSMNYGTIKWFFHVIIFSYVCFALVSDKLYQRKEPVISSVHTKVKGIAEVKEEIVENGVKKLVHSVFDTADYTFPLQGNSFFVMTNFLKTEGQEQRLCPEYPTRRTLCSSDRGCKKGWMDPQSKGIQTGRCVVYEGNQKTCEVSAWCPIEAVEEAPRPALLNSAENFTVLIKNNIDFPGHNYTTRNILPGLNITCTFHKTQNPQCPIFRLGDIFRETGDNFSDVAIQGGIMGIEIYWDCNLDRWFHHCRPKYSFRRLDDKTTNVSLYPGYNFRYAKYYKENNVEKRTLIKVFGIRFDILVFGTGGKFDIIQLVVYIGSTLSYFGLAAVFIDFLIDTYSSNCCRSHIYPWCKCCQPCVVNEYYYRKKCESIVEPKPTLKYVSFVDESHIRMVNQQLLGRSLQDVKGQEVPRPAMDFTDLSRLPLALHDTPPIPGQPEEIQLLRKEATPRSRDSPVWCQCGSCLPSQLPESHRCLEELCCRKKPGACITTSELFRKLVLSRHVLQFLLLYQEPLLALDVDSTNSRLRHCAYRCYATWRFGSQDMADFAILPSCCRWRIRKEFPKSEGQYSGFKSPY
Assay type: cell-based
Summary of the method: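 IC50 derived by four-parameter logistic fit of percent inhibition of IL-1β release (ELISA, background-adjusted). Release triggered by 45 min BzATP at 250 uM final after 30 min compound pretreatment of THP-1 cells previously differentiated 16 h (LPS, IFN-γ, 100 ng/mL each) and re-primed 2 h with LPS.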

inhibition at 0.1 µM [%] | Compound
0 to 25 | Cc1ccccc1CC(=O)Nc1cccc2c(=O)n(CC(C)(C)O)ccc12 [Compound 211]
26 to 50 | COc1cccc(CC(=O)Nc2cccc3c(=O)n(CC(C)(C)O)ccc23)c1 [Compound 212]
0 to 25 | Cc1cccc(CC(=O)Nc2cccc3c(=O)n(CC(C)(C)O)ccc23)c1 [Compound 213]
0 to 25 | COc1ccc(CC(=O)Nc2cccc3c(=O)n(CC(C)(C)O)ccc23)cc1 [Compound 214]
26 to 50 | CCOc1ccc(CC(=O)Nc2cccc3c(=O)n(CC(C)(C)O)ccc23)cc1 [Compound 215]
0 to 25 | Cc1ccc(CC(=O)Nc2cccc3c(=O)n(CC(C)(C)O)ccc23)cc1 [Compound 216]
0 to 25 | CC(C)(O)Cn1ccc2c(NC(=O)c3cc4ccccc4o3)cccc2c1=O [Compound 217]
0 to 25 | CC(C)(O)Cn1ccc2c(NC(=O)Cc3ccc4c(c3)OCO4)cccc2c1=O [Compound 218]
0 to 25 | COc1cc(CC(=O)Nc2cccc3c(=O)n(CC(C)(C)O)ccc23)cc(OC)c1 [Compound 219]
26 to 50 | Cc1ccc(C(=O)Nc2cccc3c(=O)n(CC(C)(C)O)ccc23)cc1Cl [Compound 220]
26 to 50 | Cc1cc(Cl)ccc1C(=O)Nc1cccc2c(=O)n(CC(C)(C)O)ccc12 [Compound 221]
0 to 25 | CC(C)(O)Cn1ccc2c(NC(=O)c3cccc4c3OCCO4)cccc2c1=O [Compound 222]
0 to 25 | CC(C)(O)Cn1ccc2c(NC(=O)c3ccc4c(c3)OCCCO4)cccc2c1=O [Compound 223]
26 to 50 | CC(C)(O)Cn1ccc2c(NC(=O)Cc3csc4ccccc34)cccc2c1=O [Compound 224]
0 to 25 | Cc1c(Cl)cccc1C(=O)Nc1cccc2c(=O)n(CC(C)(C)O)ccc12 [Compound 225]
0 to 25 | Cc1cc(C)cc(CC(=O)Nc2cccc3c(=O)n(CC(C)(C)O)ccc23)c1 [Compound 226]
0 to 25 | COc1ccc(C(=O)Nc2cccc3c(=O)n(CC(C)(C)O)ccc23)cc1C [Compound 227]

Same assay, conditions: 0.3 μM compound; differentiated THP-1 cells, BzATP 250 uM; "+" symbols; read-out: IL-1β % Inhib. @ 0.3 or 0.1 uM

Compound | inhibition at 0.3 µM [%]
O=C(Cc1ccc(Cl)cc1C(F)(F)F)Nc1cccc2c(=O)n(C(CO)CO)ccc12 [Compound 228] | 51 to 75
O=C(Cc1ccc(Cl)cc1C(F)(F)F)Nc1cccc2c(=O)n(CCO)ccc12 [Compound 229] | 51 to 75
O=C(Cc1ccc(C(F)(F)F)cc1C(F)(F)F)Nc1cccc2c(=O)n(CCO)ccc12 [Compound 230] | > 76
CC(C(=O)Nc1cccc2c(=O)n(C(CO)CO)ccc12)c1ccc(Cl)cc1 (stereo not shown) [Compound 231] | 26 to 50
O=C(Cc1ccc(C(F)(F)F)cc1C(F)(F)F)Nc1cccc2c(=O)n(C(CO)CO)ccc12 [Compound 233] | 26 to 50
CNCCn1ccc2c(NC(=O)Cc3ccc(Cl)c(Cl)c3)cccc2c1=O [Compound 234] | 51 to 75
CNCCn1ccc2c(NC(=O)Cc3ccc(Cl)c(C(F)(F)F)c3)cccc2c1=O [Compound 235, 2-(4-Chloro-3-trifluoromethyl-phenyl)-N-[2-(2-methylamino-ethyl)-1-oxo-1,2-dihydro-isoquinolin-5-yl]-acetamide] | > 76
C[C@H](C(N)=O)n1ccc2c(NC(=O)Cc3ccc(Cl)c(Cl)c3)cccc2c1=O [Compound 239] | > 76
CC(C(=O)Nc1cccc2c(=O)n([C@@H](C)C(N)=O)ccc12)c1ccc(Cl)cc1 (stereo partly shown) [Compound 240] | > 76
C[C@H](C(N)=O)n1ccc2c(NC(=O)Cc3ccc(Cl)cc3C(F)(F)F)cccc2c1=O [Compound 241] | > 76
CC(C(=O)Nc1cccc2c(=O)n(C[C@H]3CCCN3)ccc12)c1ccc(Cl)cc1 (stereo partly shown) [Compound 242] | 26 to 50
O=C(Cc1ccc(Cl)c(C(F)(F)F)c1)Nc1cccc2c(=O)n(C[C@H]3CCCN3)ccc12 [Compound 243] | > 76
CC(C(=O)Nc1cccc2c(=O)n(CCO)ccc12)c1ccc(Cl)cc1 (stereo not shown) [Compound 244] | 26 to 50
O=C(Cc1ccc(Cl)c(Cl)c1)Nc1cccc2c(=O)n(C[C@H]3CCCN3)ccc12 [Compound 245] | > 76

Second part, the compound after the results:

inhibition at 0.3 µM [%] | Compound
51 to 75 | CC(C(=O)Nc1cccc2c(=O)n(C[C@@H]3CCCN3)ccc12)c1ccc(Cl)cc1 (stereo partly shown) [Compound 246]
0 to 25 | O=C(Cc1ccc(Cl)c(Cl)c1)Nc1c(Cl)ccc2c(=O)n(CCO)ccc12 [Compound 248]
> 76 | CC(C(=O)Nc1cccc2c(=O)n(CCO)ccc12)c1ccc(Cl)c(C(F)(F)F)c1 (stereo not shown) [Compound 251]
51 to 75 | CC(C(=O)Nc1cccc2c(=O)n([C@H](CO)C(N)=O)ccc12)c1ccc(Cl)cc1 (stereo partly drawn) [Compound 252, (R)-2-{5-[2-(4-Chloro-phenyl)-propionylamino]-1-oxo-1H-isoquinolin-2-yl}-3-hydroxy-propionamide]
26 to 50 | NC(=O)[C@H](CO)n1ccc2c(NC(=O)Cc3ccc(Cl)c(Cl)c3)cccc2c1=O [Compound 253]
> 76 | C[C@H](C(N)=O)n1ccc2c(NC(=O)Cc3cccc(Cl)c3)cccc2c1=O [Compound 255]
> 76 | O=C(Cc1ccc(Cl)c(C(F)(F)F)c1)Nc1cccc2c(=O)n(CC3CCNCC3)ccc12 [Compound 257, 2-(4-Chloro-3-trifluoromethyl-phenyl)-N-(1-oxo-2-piperidin-4-ylmethyl-1,2-dihydro-isoquinolin-5-yl)-acetamide]
> 76 | NCC(CCl)Cn1ccc2c(NC(=O)Cc3ccc(Cl)c(C(F)(F)F)c3)cccc2c1=O (stereo not shown) [Compound 258, N-[2-(3-Amino-2-chloromethyl-propyl)-1-oxo-1,2-dihydro-isoquinolin-5-yl]-2-(4-chloro-3-trifluoromethyl-phenyl)-acetamide]
51 to 75 | NCC(CCl)Cn1ccc2c(NC(=O)Cc3ccc(Cl)c(Cl)c3)cccc2c1=O (stereo not shown) [Compound 259]
0 to 25 | C[C@H](C(N)=O)n1ccc2c(NC(=O)Cc3ccccc3Cl)cccc2c1=O [Compound 260]
51 to 75 | CNC(=O)[C@@H](CO)n1ccc2c(NC(=O)C(C)c3ccc(Cl)cc3)cccc2c1=O (stereo partly shown) [Compound 261]
26 to 50 | C[C@H](C(N)=O)n1ccc2c(NC(=O)C(C)(C)c3ccc(Cl)cc3)cccc2c1=O [Compound 264]
> 76 | CNC(=O)[C@@H](CO)n1ccc2c(NC(=O)C(C)c3ccc(Cl)c(Cl)c3)cccc2c1=O (stereo partly drawn) [Compound 270, (R)-2-{5-[2-(3,4-Dichloro-phenyl)-propionylamino]-1-oxo-1H-isoquinolin-2-yl}-3-hydroxy-N-methyl-propionamide]
> 76 | CC(C)C[C@H](CO)n1ccc2c(NC(=O)[C@@H](C)c3ccc(Cl)cc3)cccc2c1=O [Compound 271]
0 to 25 | C[C@H](C(N)=O)n1ccc2c(NC(=O)c3cccc4ncccc34)cccc2c1=O [Compound 272]
> 76 | CC(C)[C@H](CO)n1ccc2c(NC(=O)[C@H](C)c3ccc(Cl)cc3)cccc2c1=O [Compound 273, (R)-2-(4-Chloro-phenyl)-N—[(R)-2-(1-hydroxymethyl-2-methyl-propyl)-1-oxo-1,2-dihydro-isoquinolin-5-yl]-propionamide]

Same assay, conditions: THP-1 cells, BzATP 250 uM, IL-1β by ELISA

IC50 [nM] | Compound
356 | CC(C(=O)Nc1cccc2c(=O)n(C[C@H]3CCCN3)ccc12)c1ccc(Cl)cc1 (stereo partly shown) [Compound 242]
443 | C[C@H](C(N)=O)n1ccc2c(NC(=O)C(C)(C)c3ccc(Cl)cc3)cccc2c1=O [Compound 264]
